We go through 14 compounds from PubChem BioAssay (NCI).

Several values for one entry are separate records, joined by “and”; a condition that tells them apart may be missing. Equal entries are not always repeated.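 Where inhibition never reached the appropriate level, the endpoint shown equals the highest concentration tested. Otherwise, values were interpolated linearly from a five-concentration, 48-hour dose response in 96-well plates. GI50 marks 50% less growth. TGI marks complete inhibition of growth.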

Holding throughout (experiment): NCI anticancer screen, dose series, 48 h
Assay [1] deals with MALME-3M melanoma.
For assay [2], the system named is NCI-H460 lung.
The subject of assay [3] is HS 578T breast.
Assay [4] has as its system MDA-N.
Assay [5] concerns M14 melanoma.
Assay [6] relates to HOP-62 NSCLC.
Assay [7] relates to HOP-92 NSCLC.
Assay [8] concerns SR leukemia.
The test system of assay [9] is OVCAR-4 ovarian.
The subject of assay [10] is SF-295 CNS.

Consider `O=[N+]([O-])c1cccc(N=Nc2c(O)c(S(=O)(=O)O)cc3cc(S(=O)(=O)O)ccc23)c1`, for which the TGI in assay [1], in assay [2], in assay [3], in [4], in assay [5] and in assay [6] was more than 100 µM each time. Also, the TGI in assay [7], in assay [8], in assay [9] and in assay [10] was more than 100 µM throughout.

For the compound `C/C(=N\Nc1nc2ccccc2n1C)c1cc2ccccc2cn1`, the TGI was 3.03 µM in assay [1]; 7.05 µM in assay [2]; 15.1 µM in [3]; 16.6 µM in assay [4]; 2.81 µM in assay [5]; more than 26.3 µM in assay [6]. Further, the TGI in [7] is 3.86 µM; in [8], more than 100 µM; in [9], 13 µM; in [10], 5.39 µM.

In the case of `O=c1[nH]n(Cc2ccccc2)c2ccc([N+](=O)[O-])cc12`, the TGI in assay [1] was more than 100 µM; in assay [2], more than 100 µM; in assay [3] it was more than 100 µM; in [4], 99.6 µM; in assay [5], more than 100 µM; in assay [6], more than 100 µM. The TGI in [7], in assay [8], in [9] and in assay [10] was more than 100 µM throughout.

As to `CN(C)CCCNc1ccc2nnn3c4ccc(O)cc4c(=O)c1c23`, the TGI in assay [1] is 23.1 µM; in [2], 14.1 µM; in [3], 13.3 µM; in assay [4], 19.9 µM; in assay [5] it was 21 µM; in assay [6], 17.6 µM. The TGI in assay [7] came to 20.7 µM; in assay [8] it was 3.61 µM; in [9] it was 18.5 µM; in assay [10], 18.7 µM.

On to `O=C(N/N=C/C=C/c1ccccc1)c1ccccc1Nc1ccccc1C(=O)N/N=C/C=C/c1ccccc1`, for which the TGI in [1] was more than 100 µM; in assay [2] it was more than 100 µM; in assay [3], more than 100 µM; in assay [4], more than 100 µM; in [5] it was more than 100 µM; in [6], 70.4 µM. Further, the TGI in [7], in assay [8], in [9] and in assay [10] was more than 100 µM each time.

In the case of `C#CCn1c(=O)c(C)cn(/C(=C\C(=O)OCC)C(=O)OCC)c1=O`, the TGI in assay [1] was determined as 5.6 µM; in assay [2] it was 8.06 µM; in assay [3], 62 µM; in assay [4], 22.2 µM; in assay [5], 11.3 µM; in assay [6], 39.2 µM. Moreover, the TGI was 5.17 µM in assay [7], more than 27.6 µM in assay [8], 6.35 µM in [9] and 42.3 µM in [10].

For `C=C(C)[C@H]1C2=CC(C)=C(O2)[C@@H](O[C@@H]2c3oc(cc3C)[C@H](C(=C)C)[C@H]3C=C(CC[C@H]2C(=C)C)C(=O)O3)[C@H](C(=C)C)CCC2=C[C@H]1OC2=O`, the TGI in assay [1], in assay [2], in assay [3], in assay [4], in assay [5] and in [6] was more than 100 µM each time. The TGI in [7], in assay [8], in assay [9] and in [10] was more than 100 µM in each case.

As for `CC(=O)NC1C(OCc2ccccc2)OC(CO)C(O)C1OC(C)C(=O)NC(C(=O)NC(CCC(=O)NCCCCNc1c2ccccc2nc2cccc([N+](=O)[O-])c12)C(N)=O)C(C)C` (stereo not given), the TGI in assay [1] was found to be 4.08 µM; in assay [2], 9.93 µM; in assay [3] it was 42.6 µM; in assay [4], 3.67 µM; in assay [5], 3.32 µM; in [6] it was 11.7 µM. In addition, the TGI turned out to be 4.52 µM in [7], 2.61 µM in [8], 3.97 µM in assay [9] and 43.1 µM in assay [10].

For `CC(C)(C)OC(=O)NCC(CNC(=O)OC(C)(C)C)c1nc(C(N)=O)cs1`, the TGI in assay [1], in [2], in [3], in assay [4], in [5] and in assay [6] was more than 100 µM in each case. Moreover, the TGI in assay [7], in [8], in [9] and in [10] was more than 100 µM each time.

Turning to `O=C1NC(=O)C(C(CC(=O)c2ccc(Cl)cc2)c2ccc(Cl)cc2)C(=O)N1` (stereo not given), the TGI is 7.63 µM in [1]; more than 100 µM in assay [2]; more than 100 µM in assay [3]; more than 100 µM in assay [4]; more than 100 µM in assay [5]; more than 100 µM in assay [6]. Besides, the TGI in assay [7], in assay [8], in assay [9] and in assay [10] was more than 100 µM throughout.

For the compound `Cc1ccc(S(=O)CC(CF)OCn2cc(C)c(=O)[nH]c2=O)cc1` (stereo not given), the TGI in assay [1], in assay [2], in assay [3], in assay [4], in assay [5] and in assay [6] was more than 100 µM in each case. The TGI in [7], in [8], in assay [9] and in [10] was more than 100 µM in each case.

`CC(C)=CCNc1nc(Cl)nc2nc[nH]c12`: the TGI in [1] was more than 100 µM; in assay [2], 68.8 µM; in assay [3] it was more than 100 µM; in [4], more than 100 µM; in [5], more than 100 µM; in [6], 79.2 µM. Further, the TGI in [7] is 87.5 µM; in [8], more than 100 µM; in assay [9], more than 100 µM; in assay [10] it was more than 100 µM.

For the compound `O=C(O)COc1cc(-c2ccccc2)nc2cc(F)ccc12`, the TGI in [1], in assay [2], in assay [3], in [4], in [5] and in assay [6] was more than 100 µM in each case. The TGI in assay [7], in [8], in assay [9] and in assay [10] was more than 100 µM throughout.

`CC1=C2C(=CO[C@H](C)[C@H]2C)C(=O)C(C(=O)O)=C1O`: the GI50 in [1] was 21 µM; in [2], 30.1 µM and 73 µM; in [6], 29 µM; in assay [7], 16.1 µM; in assay [10] it was 24.7 µM. Further, the TGI in assay [1] is 54.4 µM and 115 µM; in assay [2] it was > 90.1 µM and 149 µM; in assay [3], 96.4 µM; in assay [4], 72.2 µM; in assay [5], 60.9 µM; in assay [6], 44.2 µM and 79.3 µM. Further, the TGI in assay [7] is 72.6 µM and 46.3 µM; in [8], 66.7 µM; in assay [9], > 80.5 µM and 87.5 µM; in assay [10], 97.1 µM and 61.3 µM.
